Series [1] deals with PI3Kα (Homo sapiens, UniProt P42336). The series is described as follows: PI3K-alpha fluorescence polarization assay. Type of series: biochemical. The following applies: read-out: PI3Kα Median IC50.
For series [2], the target named is mTOR (Homo sapiens, UniProt P42345). The series is described as follows: mTOR enzyme assay (DELFIA format, His6-S6K substrate). Type of series: biochemical. The following applies: read-out: mTOR Kinase Median IC50.
Series [3] deals with PI3Kγ (Homo sapiens, UniProt P48736). As to the kind of experiment: PI3K-gamma fluorescence polarization assay. The following applies: read-out: PI3Kγ Median IC50. Type of series: biochemical. On the technique in general: Polarisation of emitted light reports the rotation of a fluorescent probe.

The structures appear in SMILES notation. Bounds are passed on as bounds.

PI3Kα, sequence (P42336 whole entry, species assumed): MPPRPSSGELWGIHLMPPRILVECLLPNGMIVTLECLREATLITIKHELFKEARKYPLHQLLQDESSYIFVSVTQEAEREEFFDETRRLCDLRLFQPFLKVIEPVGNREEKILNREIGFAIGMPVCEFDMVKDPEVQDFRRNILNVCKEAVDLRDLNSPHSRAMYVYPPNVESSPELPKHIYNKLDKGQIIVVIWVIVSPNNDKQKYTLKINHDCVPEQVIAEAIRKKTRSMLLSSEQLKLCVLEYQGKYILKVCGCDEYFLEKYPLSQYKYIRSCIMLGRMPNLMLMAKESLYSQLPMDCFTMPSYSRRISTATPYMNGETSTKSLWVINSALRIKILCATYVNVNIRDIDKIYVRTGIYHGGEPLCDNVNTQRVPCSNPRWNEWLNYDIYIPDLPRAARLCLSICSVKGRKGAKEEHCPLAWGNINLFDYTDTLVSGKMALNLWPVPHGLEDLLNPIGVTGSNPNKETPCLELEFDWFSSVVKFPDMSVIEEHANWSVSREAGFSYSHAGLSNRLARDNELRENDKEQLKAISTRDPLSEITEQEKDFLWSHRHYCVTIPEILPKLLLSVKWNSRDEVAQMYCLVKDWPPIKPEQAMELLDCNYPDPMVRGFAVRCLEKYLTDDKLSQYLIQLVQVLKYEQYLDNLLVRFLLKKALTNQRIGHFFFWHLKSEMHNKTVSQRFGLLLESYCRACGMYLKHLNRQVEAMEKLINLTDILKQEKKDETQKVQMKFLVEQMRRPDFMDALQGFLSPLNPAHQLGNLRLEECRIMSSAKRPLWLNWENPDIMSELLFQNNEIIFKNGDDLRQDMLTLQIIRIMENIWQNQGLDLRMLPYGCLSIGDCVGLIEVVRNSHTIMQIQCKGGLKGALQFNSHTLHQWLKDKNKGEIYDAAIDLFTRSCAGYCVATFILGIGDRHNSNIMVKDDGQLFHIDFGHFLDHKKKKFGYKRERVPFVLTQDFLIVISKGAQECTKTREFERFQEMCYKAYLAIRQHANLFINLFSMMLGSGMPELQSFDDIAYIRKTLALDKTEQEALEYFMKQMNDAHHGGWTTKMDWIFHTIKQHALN
PI3Kα, sequence (P27986 whole entry partner, species assumed): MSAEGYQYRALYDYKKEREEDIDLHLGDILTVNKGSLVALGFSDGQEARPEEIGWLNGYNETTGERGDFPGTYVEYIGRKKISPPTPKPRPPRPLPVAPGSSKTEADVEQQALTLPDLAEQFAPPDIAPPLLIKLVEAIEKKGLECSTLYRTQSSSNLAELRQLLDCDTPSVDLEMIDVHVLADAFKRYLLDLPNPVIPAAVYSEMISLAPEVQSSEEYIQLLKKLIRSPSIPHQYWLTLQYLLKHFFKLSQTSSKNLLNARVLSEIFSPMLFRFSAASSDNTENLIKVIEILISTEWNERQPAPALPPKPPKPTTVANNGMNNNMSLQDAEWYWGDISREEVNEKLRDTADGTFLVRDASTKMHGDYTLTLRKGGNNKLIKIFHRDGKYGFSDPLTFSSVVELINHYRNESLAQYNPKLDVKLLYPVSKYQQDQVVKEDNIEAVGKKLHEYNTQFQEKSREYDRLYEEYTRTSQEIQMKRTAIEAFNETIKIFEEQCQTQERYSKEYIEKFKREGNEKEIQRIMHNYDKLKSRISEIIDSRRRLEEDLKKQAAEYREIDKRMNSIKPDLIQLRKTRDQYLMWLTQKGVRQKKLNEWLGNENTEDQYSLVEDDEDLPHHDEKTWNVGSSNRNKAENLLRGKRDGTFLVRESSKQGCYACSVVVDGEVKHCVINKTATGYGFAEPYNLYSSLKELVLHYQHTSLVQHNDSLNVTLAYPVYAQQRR
PI3Kγ, sequence (P48736 whole entry, species assumed): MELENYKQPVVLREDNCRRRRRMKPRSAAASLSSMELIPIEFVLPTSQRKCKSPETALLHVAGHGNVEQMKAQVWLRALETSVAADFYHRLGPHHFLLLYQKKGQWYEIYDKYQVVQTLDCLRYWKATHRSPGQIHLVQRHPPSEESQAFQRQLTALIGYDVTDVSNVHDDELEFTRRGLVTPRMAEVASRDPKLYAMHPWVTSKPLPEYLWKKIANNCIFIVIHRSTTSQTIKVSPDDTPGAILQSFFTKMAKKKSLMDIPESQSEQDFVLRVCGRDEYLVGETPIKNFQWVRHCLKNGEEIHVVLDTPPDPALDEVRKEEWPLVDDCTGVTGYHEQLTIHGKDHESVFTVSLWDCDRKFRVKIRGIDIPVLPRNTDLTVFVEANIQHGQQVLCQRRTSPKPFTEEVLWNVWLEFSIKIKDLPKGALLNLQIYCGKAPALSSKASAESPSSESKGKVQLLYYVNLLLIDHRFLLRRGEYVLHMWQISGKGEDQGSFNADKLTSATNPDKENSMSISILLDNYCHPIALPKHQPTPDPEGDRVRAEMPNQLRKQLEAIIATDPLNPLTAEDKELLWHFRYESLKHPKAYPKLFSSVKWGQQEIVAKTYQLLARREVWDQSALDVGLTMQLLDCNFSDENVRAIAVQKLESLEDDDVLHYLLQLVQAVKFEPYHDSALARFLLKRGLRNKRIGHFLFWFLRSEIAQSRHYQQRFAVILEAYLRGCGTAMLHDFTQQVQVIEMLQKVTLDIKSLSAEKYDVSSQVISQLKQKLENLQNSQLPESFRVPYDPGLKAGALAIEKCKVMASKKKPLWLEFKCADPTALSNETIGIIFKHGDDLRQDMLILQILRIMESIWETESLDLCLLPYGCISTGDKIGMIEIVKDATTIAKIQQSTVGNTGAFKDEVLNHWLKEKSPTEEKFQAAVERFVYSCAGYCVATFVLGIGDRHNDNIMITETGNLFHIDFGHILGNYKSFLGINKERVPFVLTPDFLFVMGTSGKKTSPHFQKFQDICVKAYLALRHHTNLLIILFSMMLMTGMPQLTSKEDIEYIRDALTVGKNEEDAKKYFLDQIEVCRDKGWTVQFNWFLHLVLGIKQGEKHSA

Consider `CNC(=O)Nc1cccc2c1C(=O)/C(=C/c1cn(C)c3nccc(-c4ccccc4)c13)O2` [Compound 99, 1-methyl-3-{(2Z)-2-[(1-methyl-4-phenyl-1H-pyrrolo[2,3-b]pyridin-3-yl)methylene]-3-oxo-2,3-dihydro-1-benzofuran-4-yl}urea], for which the melting point was in the range of 273 to 275 °C. For the same molecule, the IC50 in series [1] is over 10000 nM. Moreover, in series [2], the IC50 was found to be 3500 nM. Also, the IC50 in series [3] turned out to be 2230 nM.
In the same order, the values of `CC1CC(C)CN(c2ccnc3c2c(/C=C2\Oc4cccc(O)c4C2=O)cn3C)C1` (stereo not shown) [Compound 100, (2Z)-2-{[4-(3,5-dimethylpiperidin-1-yl)-1-methyl-1H-pyrrolo[2,3-b]pyridin-3-yl]methylene}-4-hydroxy-1-benzofuran-3(2H)-one] are 235 to 240 °C, 806 nM, 15 nM and over 10000 nM.
Molecule `Cn1cc(/C=C2\Oc3cccc(O)c3C2=O)c2c(N3CC4CC3CN4)ccnc21` (stereo not shown) [Compound 101, (2Z)-2-{[4-(2,5-diazabicyclo[2.2.1]hept-2-yl)-1-methyl-1H-pyrrolo[2,3-b]pyridin-3-yl]methylene}-4-hydroxy-1-benzofuran-3(2H)-one] gave a melting point of 325 °C. Further, the IC50 in series [1] was 20 nM. Also, the concentration for half-maximal inhibition (IC50) in series [2] was 10.8 nM. The IC50 in series [3] is 339 nM.
Regarding `Cn1cc(/C=C2\Oc3cccc(O)c3C2=O)c2c(N3CCSCC3)ccnc21` [Compound 102, (2Z)-4-hydroxy-2-[(1-methyl-4-thiomorpholin-4-yl-1H-pyrrolo[2,3-b]pyridin-3-yl)methylene]-1-benzofuran-3(2H)-one], the melting point is 285 to 290 °C. The 50% inhibitory concentration (IC50) in series [1] came out at 104 nM. The half-maximal inhibitory concentration (IC50) in series [2] amounted to 1.9 nM. Further, the IC50 in series [3] amounted to 271 nM.
Taken in the same sequence, the figures for `Cn1cc(/C=C2\Oc3cccc(O)c3C2=O)c2c(-c3cccc(C(=O)N4CCCC4)c3)ccnc21` [Compound 103, (2Z)-4-hydroxy-2-({1-methyl-4-[3-(pyrrolidin-1-ylcarbonyl)phenyl]-1H-pyrrolo[2,3-b]pyridin-3-yl}methylene)-1-benzofuran-3(2H)-one] were 233 to 235 °C, 182 nM, 6.6 nM and 169 nM.
Taken in the same sequence, the figures for `Cn1cc(/C=C2\Oc3cccc(O)c3C2=O)c2c(N3CCN(C(=O)N4CCCC4)CC3)ccnc21` [Compound 104, (2Z)-4-hydroxy-2-({1-methyl-4-[4-(pyrrolidin-1-ylcarbonyl)piperazin-1-yl]-1H-pyrrolo[2,3-b]pyridin-3-yl}methylene)-1-benzofuran-3(2H)-one] were 223 to 225 °C, 70 nM, 2.9 nM and 245 nM.
Turning to `Cn1cc(/C=C2\Oc3cccc(O)c3C2=O)c2c(N3CC4(C)CC3CC(C)(C)C4)ccnc21` (stereo not shown) [Compound 105, (2Z)-4-hydroxy-2-{[1-methyl-4-(1,3,3-trimethyl-6-azabicyclo[3.2.1]oct-6-yl)-1H-pyrrolo[2,3-b]pyridin-3-yl]methylene}-1-benzofuran-3(2H)-one], the melting point fell in the range of 220 to 223 °C. Also, in series [1], the IC50 was over 10000 nM. Moreover, the IC50 in series [2] came to 69 nM. In series [3], the IC50 was over 10000 nM.
`Cn1cc(/C=C2\Oc3cccc(O)c3C2=O)c2c(-c3ccc(C(F)(F)F)cc3)ccnc21` [Compound 106, (2Z)-4-hydroxy-2-({1-methyl-4-[4-(trifluoromethyl)phenyl]-1H-pyrrolo[2,3-b]pyridin-3-yl}methylene)-1-benzofuran-3(2H)-one] gave a melting point of 244 to 254 °C. Moreover, the IC50 in series [1] was found to be 6010 nM. For the same molecule, the IC50 in series [2] worked out at 7.4 nM. Moreover, the IC50 in series [3] was over 10000 nM.
In the same order, the values of `Cn1cc(/C=C2\Oc3cccc(O)c3C2=O)c2c(-c3cccc(C(F)(F)F)c3)ccnc21` [Compound 107, (2Z)-4-hydroxy-2-({1-methyl-4-[3-(trifluoromethyl)phenyl]-1H-pyrrolo[2,3-b]pyridin-3-yl}methylene)-1-benzofuran-3(2H)-one] are 262 to 265 °C, 386 nM, 12.3 nM and 676 nM.
Taken in the same sequence, the figures for `Cn1cc(/C=C2\Oc3cccc(N)c3C2=O)c2c(-c3ccccc3)ccnc21` [Compound 108, (2Z)-4-amino-2-[(1-methyl-4-phenyl-1H-pyrrolo[2,3-b]pyridin-3-yl)methylene]-1-benzofuran-3(2H)-one] were 262 to 268 °C, 6110 nM, 53 nM and over 10000 nM.
In the same order, the values of `Cn1cc(/C=C2\Oc3cccc(O)c3C2=O)c2c(N3CCCC(C(=O)N4CCCC4)C3)ccnc21` (stereo not shown) [Compound 109, (2Z)-4-hydroxy-2-({1-methyl-4-[3-(pyrrolidin-1-ylcarbonyl)piperidin-1-yl]-1H-pyrrolo[2,3-b]pyridin-3-yl}methylene)-1-benzofuran-3(2H)-one] are 235 to 240 °C, 152 nM, 4.4 nM and 253 nM.
Molecule `Cn1cc(/C=C2\Oc3cccc(O)c3C2=O)c2c(-c3cccc(OC(F)(F)F)c3)ccnc21` [Compound 110, (2Z)-4-hydroxy-2-({1-methyl-4-[3-(trifluoromethoxy)phenyl]-1H-pyrrolo[2,3-b]pyridin-3-yl}methylene)-1-benzofuran-3(2H)-one] registered a melting point of 230 to 233 °C. For the same molecule, in series [1], the IC50 was 651 nM. Moreover, in series [2], the IC50 worked out at 82.5 nM. Moreover, the IC50 in series [3] was over 10000 nM.
As to `CN(C)C(=O)c1ccc(-c2ccnc3c2c(/C=C2\Oc4cccc(O)c4C2=O)cn3C)cc1` [Compound 111, 4-{3-[(Z)-(4-hydroxy-3-oxo-1-benzofuran-2(3H)-ylidene)methyl]-1-methyl-1H-pyrrolo[2,3-b]pyridin-4-yl}-N,N-dimethylbenzamide], the melting point was in the range of 212 to 218 °C. The IC50 in series [1] is 36 nM. In addition, the IC50 in series [2] is 0.5 nM. Moreover, the IC50 in series [3] stood at 66 nM.
In the same order, the values of `CN(C)C1CCN(c2ccnc3c2c(/C=C2\Oc4cccc(O)c4C2=O)cn3C)C1` (stereo not shown) [Compound 112, (2Z)-2-({4-[3-(dimethylamino)pyrrolidin-1-yl]-1-methyl-1H-pyrrolo[2,3-b]pyridin-3-yl}methylene)-4-hydroxy-1-benzofuran-3(2H)-one] are 205 °C, 120 nM, 39 nM and 576 nM.
In the same order, the values of `CN(C)Cc1ccc(-c2ccnc3c2c(/C=C2\Oc4cccc(O)c4C2=O)cn3C)cc1` [Compound 113, (2Z)-2-[(4-{4-[(dimethylamino)methyl]phenyl}-1-methyl-1H-pyrrolo[2,3-b]pyridin-3-yl)methylene]-4-hydroxy-1-benzofuran-3(2H)-one] are 340 to 350 °C, 101 nM, 20 nM and 626 nM.
Taken in the same sequence, the figures for `Cn1cc(/C=C2\Oc3cccc(O)c3C2=O)c2c(N3CCC(C(N)=O)CC3)ccnc21` [Compound 114, 1-{3-[(Z)-(4-hydroxy-3-oxo-1-benzofuran-2(3H)-ylidene)methyl]-1-methyl-1H-pyrrolo[2,3-b]pyridin-4-yl}piperidine-4-carboxamide] were 280 to 287 °C, 29 nM, 0.7 nM and 127 nM.

As usually defined, the IC50 is the concentration that inhibits the measured activity by half. As usually defined, the melting point is the temperature of the solid-liquid transition.

The values are drawn from patent publication US20090298820A1, “3-SUBSTITUTED-1H-PYRROLO[2,3-B]PYRIDINE AND 3-SUBSTITUTED-1H-PYRROLO[3,2-B]PYRIDINE COMPOUNDS, THEIR USE AS MTOR KINASE AND PI3 KINASE INHIBITORS, AND THEIR SYNTHESES” (Wyeth, priority 2008, published 2009).
